The source of these data is ChEMBL document CHEMBL1133132, “Cell adhesion antagonists: synthesis and evaluation of a novel series of phenylalanine based inhibitors” (Bioorg Med Chem Lett, 2000).

In one experiment the target is T1, Integrin alpha-4/beta-7 (Homo sapiens, UniProt P13612+P26010).
T1 sequence (P13612 whole entry): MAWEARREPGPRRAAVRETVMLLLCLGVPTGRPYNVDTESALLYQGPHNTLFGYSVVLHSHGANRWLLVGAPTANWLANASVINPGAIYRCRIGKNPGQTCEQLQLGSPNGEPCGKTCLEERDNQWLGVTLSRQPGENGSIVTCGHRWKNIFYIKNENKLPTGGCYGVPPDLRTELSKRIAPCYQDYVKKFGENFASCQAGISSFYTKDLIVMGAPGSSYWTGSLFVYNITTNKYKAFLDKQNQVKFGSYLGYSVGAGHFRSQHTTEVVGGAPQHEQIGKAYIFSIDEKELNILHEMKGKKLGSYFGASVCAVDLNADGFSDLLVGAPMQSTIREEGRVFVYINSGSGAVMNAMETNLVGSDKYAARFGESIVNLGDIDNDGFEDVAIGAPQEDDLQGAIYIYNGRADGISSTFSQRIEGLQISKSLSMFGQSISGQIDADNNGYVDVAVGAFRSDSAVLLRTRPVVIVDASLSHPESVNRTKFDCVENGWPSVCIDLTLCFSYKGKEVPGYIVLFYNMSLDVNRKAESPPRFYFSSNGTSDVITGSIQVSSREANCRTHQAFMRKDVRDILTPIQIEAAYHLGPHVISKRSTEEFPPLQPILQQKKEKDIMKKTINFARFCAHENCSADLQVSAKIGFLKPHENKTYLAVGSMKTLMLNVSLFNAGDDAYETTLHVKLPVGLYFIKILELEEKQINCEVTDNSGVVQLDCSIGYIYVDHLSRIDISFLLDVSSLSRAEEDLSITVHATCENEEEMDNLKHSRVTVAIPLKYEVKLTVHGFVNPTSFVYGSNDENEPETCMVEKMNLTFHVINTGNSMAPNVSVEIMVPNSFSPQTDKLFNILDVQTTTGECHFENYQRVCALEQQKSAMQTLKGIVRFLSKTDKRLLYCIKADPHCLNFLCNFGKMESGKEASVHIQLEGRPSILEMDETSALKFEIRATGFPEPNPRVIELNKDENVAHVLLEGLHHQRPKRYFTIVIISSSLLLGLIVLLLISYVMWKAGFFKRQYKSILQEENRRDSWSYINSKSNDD
T1 sequence (P26010 whole entry): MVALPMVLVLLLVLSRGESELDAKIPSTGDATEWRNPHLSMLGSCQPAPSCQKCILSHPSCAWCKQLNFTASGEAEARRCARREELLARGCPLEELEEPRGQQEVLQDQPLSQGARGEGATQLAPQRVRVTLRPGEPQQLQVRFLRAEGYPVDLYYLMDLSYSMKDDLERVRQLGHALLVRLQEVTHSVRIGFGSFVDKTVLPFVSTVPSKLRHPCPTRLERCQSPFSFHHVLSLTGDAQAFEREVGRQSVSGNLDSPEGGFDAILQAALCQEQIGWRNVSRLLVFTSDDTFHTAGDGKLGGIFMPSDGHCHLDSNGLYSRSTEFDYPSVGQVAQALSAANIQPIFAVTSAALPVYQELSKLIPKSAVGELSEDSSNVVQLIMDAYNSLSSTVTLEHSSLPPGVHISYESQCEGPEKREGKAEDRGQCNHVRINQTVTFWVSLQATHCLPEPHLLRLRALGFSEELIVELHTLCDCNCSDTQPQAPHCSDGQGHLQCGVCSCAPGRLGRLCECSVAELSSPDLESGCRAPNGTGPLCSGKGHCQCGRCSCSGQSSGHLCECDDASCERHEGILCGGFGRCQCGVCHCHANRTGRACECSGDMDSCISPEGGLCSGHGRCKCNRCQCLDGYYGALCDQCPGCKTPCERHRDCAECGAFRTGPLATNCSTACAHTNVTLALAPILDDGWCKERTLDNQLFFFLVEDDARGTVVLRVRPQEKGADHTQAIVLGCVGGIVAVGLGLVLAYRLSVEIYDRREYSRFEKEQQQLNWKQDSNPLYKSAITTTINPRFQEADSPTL
Nature of the experiment: Inhibition of alpha-4 beta7/MAdCAM mediated cell adhesion was evaluated using B-cell lymphoma RPMI 8866 cells; In active. In kind it is functional, cell-based.
For the compound `CC(C)(C)OC(=O)[C@H](Cc1ccccc1)NCc1ccc([N+](=O)[O-])c(O)c1`, the IC50 result is listed as “Not Active”.

Turning to `CC(C)CCNC(=O)[C@@H](Cc1ccccc1)NCc1cc([N+](=O)[O-])ccc1O`, the IC50 result was “Not Active”.

Another experiment addresses T1, Integrin alpha-4/beta-7. Nature of the experiment: Inhibition of alpha-4 beta7/MAdCAM mediated cell adhesion was evaluated using B-cell lymphoma RPMI 8866 cells. It is filed as functional, cell-based.
As to `CC(C)(C)OC(=O)[C@H](Cc1ccccc1)NCc1ccccc1F`, the IC50 amounted to 117 µM.

On to `CC(C)(C)OC(=O)[C@H](Cc1ccccc1)NCc1cccc(O)c1`, for which the IC50 came out at 54 µM.

The compound `CC(C)(C)OC(=O)[C@H](Cc1ccccc1)NCc1cccc(F)c1` registered an IC50 of 176 µM.

Turning to `CC(C)(C)OC(=O)[C@H](Cc1ccccc1)NCc1ccccc1O`, the IC50 stood at 60 µM.

As to `O=C(OCc1ccccc1)[C@H](Cc1ccccc1)NCc1cc([N+](=O)[O-])ccc1O`, the IC50 came out at 7 µM.

In the case of `CC(C)(C)OC(=O)[C@H](Cc1ccccc1)NCc1ccccc1`, the IC50 is 100 µM.

Turning to `COc1cccc(CN[C@@H](Cc2ccccc2)C(=O)OC(C)(C)C)c1`, half-maximal inhibition (IC50) required 122 µM.

The compound `CC(C)(C)OC(=O)[C@H](Cc1ccccc1)NCc1cc([N+](=O)[O-])ccc1O` displayed a half-maximal inhibitory concentration (IC50) of 30 µM.

On to `CC(C)(C)OC(=O)[C@H](Cc1ccccc1)NCc1ccc(O)cc1`, for which the concentration for half-maximal inhibition (IC50) worked out at 85 µM.

Take `COc1ccccc1CN[C@@H](Cc1ccccc1)C(=O)OC(C)(C)C`: inhibition was half-maximal at 50 µM (IC50).

`COc1ccc(CN[C@@H](Cc2ccccc2)C(=O)OC(C)(C)C)cc1` returned an IC50 of 122 µM.

In the case of `CC(C)(C)COC(=O)[C@H](Cc1ccccc1)NCc1cc([N+](=O)[O-])ccc1O`, the IC50 worked out at 9 µM.

Consider `C=C(C)CCOC(=O)[C@H](Cc1ccccc1)NCc1cc([N+](=O)[O-])ccc1O`, for which inhibition was half-maximal at 82 µM (IC50).

For `CC(C)CCNC(=O)[C@H](Cc1ccccc1)NCc1cc([N+](=O)[O-])ccc1O`, the IC50 turned out to be 6 µM.

`CC(C)CCOC(=O)[C@H](Cc1ccccc1)NCc1cc([N+](=O)[O-])ccc1O` gave an IC50 of 7 µM.

On to `CC(C)(C)OC(=O)[C@H](Cc1ccccc1)NCc1ccc(F)cc1`, for which the IC50 amounted to 121 µM.
